# Test results published in patent publication US12091425B2 (AMGEN INC., priority 2016, dated 2024).
# How the values were obtained:
# [1] = molecular target: T1, Mcl-1/Bim interaction, recombinant human Mcl-1 (171-327) (Homo sapiens, UniProt Q07820); assay: Cell free Mcl-1: Bim Affinity Assay (Mcl-1 HTRF); format: binding
# T1 construct: made in house
# Summary of the method: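 Displacement of biotinylated Bim 51-76 peptide is followed by TR-FRET. Incubation runs overnight. Duplicate points are fitted with a four-parameter sigmoid to yield IC50.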
# [2] = system: OPM-2 human multiple myeloma cell line; assay: Cell Viability Assay (OPM-2 10 FBS); format: cell-based; details: OPM-2 cells, CellTiter-Glo
# Summary of the method: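 ATP-based luminescence (CellTiter-Glo) measured after a 16 h compound treatment of OPM-2 cells seeded at 3000 cells/well in 10% FBS medium. IC50 values derived by 4-parameter logistic fitting of serial dilutions.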
# [3] = TR-FRET, 0.1 nM Mcl-1 (171-327), 0.05 nM biotin-Bim (51-76)
# [4] = Homo sapiens, OPM-2, 16 h, 16 h incubation
# [5] = cell free Mcl-1:Bim TR-FRET, recombinant human Mcl-1 (171-327)
# [6] = Homo sapiens, OPM-2, 16 h, 16 h
# T1 sequence (Q07820 171-327): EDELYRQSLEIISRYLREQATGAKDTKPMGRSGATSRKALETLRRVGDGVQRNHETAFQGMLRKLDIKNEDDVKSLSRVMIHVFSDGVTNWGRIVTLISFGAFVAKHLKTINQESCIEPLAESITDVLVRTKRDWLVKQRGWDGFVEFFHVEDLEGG
"IC50 [1, 3] [nM]","IC50 [2, 6] [nM]",SMILES,"IC50 [1, 5] [nM]",IC50 ([2]; 16 h) [nM],further results
0.994,–,"CCN1C(C)C/C=C\[C@H](O)[C@@H]2CC[C@H]2CN2C[C@@]3(CCCc4cc(Cl)ccc43)COc3ccc(cc32)C(=O)NS1(=O)=O (single isomer, unassigned) [Example 58]",–,1180,–
0.535,2590,"O=C1NS(=O)(=O)NCC/C=C\[C@H](O)[C@@H]2CC[C@H]2CN2C[C@@]3(CCCc4cc(Cl)ccc43)COc3ccc1cc32 [Example 36, (1S,3′R,6′R,7′S,8′Z)-6-chloro-7′-hydroxy-3,4-dihydro-2H,15′H-spiro[naphthalene-1,22′-[20]oxa[13]thia[1,12,14]triazatetracyclo[14.7.2.0^3,6.0^19,24]pentacosa[8,16,18,24]tetraen]-15′-one 13′,13′-dioxide]",–,–,–
–,311,"C[C@@H]1[C@@H](C)C/C=C/[C@H](OCCCl)[C@@H]2CC[C@H]2CN2C[C@@]3(CCCc4cc(Cl)ccc43)COc3ccc(cc32)C(=O)NS1(=O)=O [Example 511, (1S,3′R,6′R,7′S,8′E,11′S,12′R)-6-chloro-7′-(2-chloroethoxy)-11′,12′-dimethyl-3,4-dihydro-2H,15′H-spiro[naphthalene-1,22′-[20]oxa[13]thia[1,14]diazatetracyclo[14.7.2.0^3,6.0^19,24]pentacosa [8,16,18,24]tetraen]-15′-one 13′,13′-dioxide]",1.5,–,–
0.211,–,"CCC1C(C)C(C)C=CC(O)C2CCC2CN2CC3(CCCc4cc(Cl)ccc43)COc3ccc(cc32)C(=O)NS1(=O)=O (single isomer, unassigned) [Example 1054]",–,–,IC50 ([2]; 16 h incubation): 101 nM
–,15200,"NC(=O)OC[C@@H]1CC/C=C\[C@H](O)[C@@H]2CC[C@H]2CN2C[C@@]3(CCCc4cc(Cl)ccc43)COc3ccc(cc32)C(=O)NS1(=O)=O (single isomer, unassigned) [Example 612]",0.362,–,–
–,184,"C[C@@H]1[C@@H](C)C/C=C/[C@H](OCCN(C)C)[C@@H]2CC[C@H]2CN2C[C@@]3(CCCc4cc(Cl)ccc43)COc3ccc(cc32)C(=O)NS1(=O)=O [Example 513, (1S,3′R,6′R,7′S,8′E,11′S,12′R)-6-chloro-7′-(2-(dimethylamino)ethoxy)-11′,12′-dimethyl-3,4-dihydro-2H,15′H-spiro[naphthalene-1,22′-[20]oxa[13]thia[1,14]diazatetracyclo[14.7.2.0^3,6.0^19,24]pentacosa [8,16,18,24]tetraen]-15′-one 13′,13′-dioxide]",0.395,–,–

# Continued, molecule first:
SMILES,"IC50 [1, 3] [nM]","IC50 [2, 6] [nM]","IC50 [1, 5] [nM]",IC50 ([2]; 16 h) [nM],further results
"C[C@@H]1CC/C=C/[C@H](OCc2ncccn2)[C@@H]2CC[C@H]2CN2C[C@@]3(CCCc4cc(Cl)ccc43)COc3ccc(cc32)C(=O)NS1(=O)=O [Example 956, (1S,3′R,6′R,7′S,8′E,12′R)-6-chloro-12′-methyl-7′-(2-pyrimidinylmethoxy)-3,4-dihydro-2H,15′H-spiro[naphthalene-1,22′-[20]oxa[13]thia[1,14]diazatetracyclo[14.7.2.0^3,6.0^19,24]pentacosa [8,16,18,24]tetraen]-15′-one 13′,13′-dioxide]",0.275,–,–,–,"IC50 [2, 4]: 211 nM"
"CO[C@H]1/C=C/[C@@H](C)[C@H](C)[C@@H](C)S(=O)(=O)NC(=O)c2ccc3c(c2)N(C[C@@H]2CC[C@H]21)C[C@@]1(CCCc2cc(Cl)ccc21)CO3 [Example 1053, (1S,3′R,6′R,7′S,8′E,10′R,11′S,12′R)-6-chloro-7′-methoxy-10′,11′,12′-trimethyl-3,4-dihydro-2H,15′H-spiro[naphthalene-1,22′-[20]oxa[13]thia[1,14]diazatetracyclo[14.7.2.0^3,6.0^19,24]pentacosa [8,16,18,24]tetraen]-15′-one 13′,13′-dioxide]",1.19,–,–,–,"IC50 [2, 4]: 1480 nM"
"C[C@@H]1[C@@H](C)CCCC[C@H](O)[C@@H]2CC[C@H]2CN2C[C@@]3(CCCc4cc(Cl)ccc43)COc3ccc(cc32)C(=O)NS1(=O)=O (single isomer, unassigned) [Example 556]",–,–,1.65,781,–
"C[C@@H]1CC/C=C/[C@H](OCc2cnnn2C)[C@@H]2CC[C@H]2CN2C[C@@]3(CCCc4cc(Cl)ccc43)COc3ccc(cc32)C(=O)NS1(=O)=O [Example 416, (1S,3′R,6′R,7′S,8′E,12′R)-6-chloro-12′-methyl-7′-((1-methyl-1H-1,2,3-triazol-5-yl)methoxy)-3,4-dihydro-2H,15′H-spiro[naphthalene-1,22′-[20]oxa[13]thia[1,14]diazatetracyclo[14.7.2.0^3,6.0^19,24]pentacosa [8,16,18,24]tetraen]-15′-one 13′,13′-dioxide]",0.377,1060,–,–,–
"COCC[C@@H]1/C=C/[C@@H]2CC[C@H]2CN2C[C@@]3(CCCc4cc(Cl)ccc43)COc3ccc(cc32)C(=O)NS(=O)(=O)[C@H](C)[C@@H](C)C1 [Example 114, (1S,3′R,6′S,7′E,9′R,11′S,12′R)-6-chloro-9′-(2-methoxyethyl)-11′,12′-dimethyl-3,4-dihydro-2H,15′H-spiro[naphthalene-1,22′-[20]oxa[13]thia[1,14]diazatetracyclo[14.7.2.0^3,6.0^19,24]pentacosa[7,16,18,24]tetraen]-15′-one 13′,13′-dioxide]",3.6,3400,–,–,–
"CO[C@H](C)C[C@H]1CC/C=C/[C@H](O)[C@@H]2CC[C@H]2CN2C[C@@]3(CCCc4cc(Cl)ccc43)COc3ccc(cc32)C(=O)NS1(=O)=O (single isomer, unassigned) [Example 508]",–,–,6.02,2470,–
"Cc1nnc(C[C@@H]2CC/C=C/[C@H](O)[C@@H]3CC[C@H]3CN3C[C@@]4(CCCc5cc(Cl)ccc54)COc4ccc(cc43)C(=O)NS2(=O)=O)o1 (single isomer, unassigned) [Example 564]",–,–,0.308,3040,–
"C[C@H]1C/C=C/[C@H](OCCN2CCOCC2)[C@@H]2CC[C@H]2CN2C[C@@]3(CCCc4cc(Cl)ccc43)COc3ccc(cc32)C(=O)NS(=O)(=O)[C@@H]1CC1CC1 (single isomer, unassigned) [Example 386]",0.63,–,–,273,–
"CC[C@@H]1CC/C=C/[C@H](OCC(=O)NCCO)[C@@H]2CC[C@H]2CN2C[C@@]3(CCCc4cc(Cl)ccc43)COc3ccc(cc32)C(=O)NS1(=O)=O [Example 996, 2-(((1S,3′R,6′R,7′S,8′E,12′R)-6-chloro-12′-ethyl-13′,13′-dioxido-15′-oxo-3,4-dihydro-2H-spiro[naphthalene-1,22′-[20]oxa[13]thia[1,14]diazatetracyclo[14.7.2.0^3,6.0^19,24]pentacosa [8,16,18,24]tetraen]-7′-yl)oxy)-N-(2-hydroxyethyl)acetamide]",0.487,–,–,–,"IC50 [2, 4]: 8190 nM"
"C[C@@H]1[C@@H](C)C/C=C/[C@H](OC[C@@H](C)O)[C@@H]2CC[C@H]2CN2C[C@@]3(CCCc4cc(Cl)ccc43)COc3ccc(cc32)C(=O)NS1(=O)=O (single isomer, unassigned) [Example 528]",–,–,0.253,69.6,–
"CC[N+](CC)(CC)CCO[C@H]1/C=C/C[C@H](C)[C@@H](C)S(=O)(=O)NC(=O)c2ccc3c(c2)N(C[C@@H]2CC[C@H]21)C[C@@]1(CCCc2cc(Cl)ccc21)CO3 [Example 533, 2-(((1S,3′R,6′R,7′S,8′E,11′S,12′R)-6-chloro-11′,12′-dimethyl-13′,13′-dioxido-15′-oxo-3,4-dihydro-2H-spiro[naphthalene-1,22′-[20]oxa[13]thia[1,14]diazatetracyclo[14.7.2.0^3,6.0^19,24]pentacosa [8,16,18,24]tetraen]-7′-yl)oxy)-N,N,N-triethylethanaminium 2,2,2-trifluoroacetate]",–,14200,0.583,–,–
